# Measurements published in patent US12721835B2, “Anticoccidial composition comprising violacein, and use thereof” (CJ CHEILJEDANG CORPORATION, priority 2020, dated 2026).
# Legend:
# Eimeria tenella [1] = assay: Protozoan (sporozoite) direct killing effect; assay type: cell-based; settings: tested 1 to 500 ppm, vs PBS control
# Method: (§1) In the present example, protozoan (sporozoite) direct killing ability evaluation was conducted against 3 representative Eimeria kinds known to be infected in most farms (E. tenella, E. acervulina, E. maxima).
# (§2) A certain amount of oocysts of each coccidial protozoan was put in a tube containing glass beads and pulverized, and then to remove the crushed oocyst cell wall and other debris, internal sporocysts were purified using the percoll density gradient, and washed with PBS solution. A reagent comprising sodium taurocholic acid (Sigma aldrich, USA) and trypsin (Gibco, USA), respectively, was treated to sporocysts of Eimeria tenella, Eimeria acervulina and Eimeria maxima for excystation of the internal sporozoites, and they were incubated, and then they were washed with PBS solution once and the protozoa were obtained.
# (§3) After reacting the violacein and anticoccidial agents, salinomycin, diclazuril and gallic acid (hereinafter, material) with 3 kinds of Eimeria protozoa at various concentrations of 1 to 500 ppm, respectively, only alive protozoa (sporozoites) were counted through microscopic observation. […]
# Eimeria maxima = assay: Protozoan (sporozoite) direct killing effect; assay type: cell-based; settings: tested 1 to 500 ppm, vs PBS control
# Method: as §1, §2, §3
# Eimeria acervulina = assay: Protozoan (sporozoite) direct killing effect; assay type: cell-based; settings: tested 1 to 500 ppm, vs PBS control
# Method: as §1, §2, §3
# Eimeria tenella [2] = assay: Intracellular protozoan propagation inhibition in MDBK cells (ITS-1 PCR); assay type: cell-based; settings: read-out: Intracellular protozoan propagation inhibitory effect (%)
# Method: In the present example, using MDBK cell line which is a representative animal cell known to cause Eimeria infection and propagation, the inhibition ability of intracellular protozoan invasion and intracellular protozoal propagation of the violacein was investigated.
# 100,000 MDBK cells (purchased from ATCC) were aliquoted in a 24-well plate, and then incubated at a temperature of 37° C. for 12 hours. The protozoan of Eimeria tenella was obtained similar to the method of Example 3 above. 200,000 protozoa per one well were added to wells in which cells were aliquoted, and cultured at a temperature of 41° C. for 24 hours, and then the cells were washed using PBS solution twice to remove protozoa which were not attached to the cells. Each material (violacein and anticoccidial agents, salinomycin, diclazuril and gallic acid) was treated to the cells by concentration, and further cultured at a temperature of 41° C. for 24 hours. A negative control group is a MDBK cell infected by protozoa, and a positive control group means a group in which salinomycin and diclazuril solution was incubated with the Eimeria tenella protozoan. After removing the cells and protozoa inside the cells through pipetting, DNA was extracted from the cells, and PCR was performed using E. tenella ITS-1 (Internal transcribed spacer-1) gene-specific primers. The sequences of the used primers were described in Table 9 above.
# The intracellular protozoan propagation inhibition rate (%) through treatment of the material was calculated by comparing Ct values in the material treatment groups compared to the negative control group, and the result was shown in FIG. 3 and Table 10.
# [3] = system: Eimeria tenella, Eimeria acervulina, and Eimeria maxima; assay: In vivo anticoccidial activity upon complex inoculation of 3 kinds of protozoa (broilers, formulated feed); set-up: Oocyst index: scale not given here; settings: 3 kinds infection; for Lesion index: lesion score x 10; for ACI: out of 200 points; for Lesion score: sum of duodenum, jejunum and appendix; for RWG(%): vs non-infected negative control
# Method: An in vivo anticoccidial efficacy evaluation test was performed in an animal experiment facility in Chungcheongnam-do, South Korea. One-day-old male Ross broilers were individually weighed and randomly divided into groups to use in an experiment. Matters and conditions for experimental design were described in Table 5.
# A breeding farm was managed according to the Korean poultry breeding management guidelines. Cages and the breeding farm were cleaned and disinfected before starting the test. The temperature of […] and the humidity of 40 to 50% of the breeding farm were maintained, and it was continuously monitored.
# The feed was mixed in Neobase, and each material (salinomycin (Cheilbio Cheilsalino-60 product), violacein (CJ Cheiljedang)) was added to the feed, respectively, at a concentration described in Table 6 below to be self-mixed. Antibiotics and supplements were not used in general feed and mixed feed, and no anticoccidial agent other than each material was added. Broilers were fed ad libitum throughout the experiment period. After putting 8 1-day-age broilers in cages randomly placed for each of the control group or test group and breeding, general feed (Al-choi product) was fed for 7 days, and then the mixed feed prepared above was ingested by dividing by control group or test group.
# The feed formulation administered to the control group (negative control group or positive control group) and test group and whether coccidiosis was induced by three kinds of protozoa were described in Table 6 below.
# Coccidiosis induction was performed by oral inoculation (challenge inoculation) in an oral tube type of 10,000, 50,000, 50,000 oocysts (eggs) with over 90% mature (sporulation) Eimeria tenella, Eimeria acervulina, and Eimeria maxima per one individual to 14-day-old broilers.
# The anticoccidial efficacy by test group designed in Example 2-2 above was shown as an anticoccidial index (ACI), and the anticoccidial index was calculated by the similar method to Example 1-3 above. However, in the present example, the protozoa of Eimeria tenella, Eimeria acervulina, and Eimeria maxima were challenge inoculated, so the lesion score was calculated by summing the scores for each of the duodenum, jejunum and appendix, respectively, differently from Example 1-3.
smiles,measurement,setting,value
"CC[C@@H](C(=O)[C@@H](C)[C@@H](O)[C@H](C)[C@@H]1O[C@@H]([C@@H](CC)C(=O)O)CC[C@@H]1C)[C@H]1O[C@]2(C=C[C@@H](O)[C@]3(CC[C@@](C)([C@H]4CC[C@](O)(CC)[C@H](C)O4)O3)O2)[C@H](C)C[C@@H]1C [Salinomycin, salinomycin, reference compound]",Minimum concentration for killing 50% protozoa (sporozoites) (ppm),Eimeria tenella [1],500 ppm
same,Minimum concentration for killing 50% protozoa (sporozoites) (ppm),Eimeria maxima,500 ppm
same,Minimum concentration for killing 50% protozoa (sporozoites) (ppm),Eimeria acervulina,250 ppm
same,inhibition at 5 ppm,"Eimeria tenella [2]; MDBK, 24 h",32.2%
same,inhibition at 10 ppm,"Eimeria tenella [2]; MDBK, 24 h",34.8%
same,ADG(g/d) after challenge inoculation,[3]; feed 60 ppm,46.6 g/day
same,Oocyst excretion amount/g,[3]; feed 60 ppm,540000 g⁻¹
same,Oocyst index,[3]; feed 60 ppm,20.0
same,Survival rate after challenge inoculation (%),[3]; feed 60 ppm,100%
same,Lesion index,[3]; feed 60 ppm,55
same,ACI,[3]; feed 60 ppm,130
same,Lesion score,[3]; feed 60 ppm,5.5
same,RWG(%),[3]; feed 60 ppm,105.1%
"O=C1N=c2ccccc2=C1c1cc(-c2c[nH]c3ccc(O)cc23)[nH]c1O [Violacein, 3-(2-(5-Hydroxyindol-3-yl)-5-oxo-2-pyrrolin-4-ylidene)-2-indolinone]",Minimum concentration for killing 50% protozoa (sporozoites) (ppm),Eimeria tenella [1],0.63 ppm
same,Minimum concentration for killing 50% protozoa (sporozoites) (ppm),Eimeria maxima,5 ppm
same,Minimum concentration for killing 50% protozoa (sporozoites) (ppm),Eimeria acervulina,3.9 ppm
same,inhibition at 0.5 ppm,"Eimeria tenella [2]; MDBK cells, 0.5 ppm, treated after invasion, 24 hours",53.7%
same,inhibition at 1 ppm,"Eimeria tenella [2]; MDBK cells, 1 ppm, treated after invasion, 24 hours",45.8%
same,ADG(g/d) after challenge inoculation,[3]; feed 10 ppm,40.4 g/day
same,Oocyst excretion amount/g,[3]; feed 10 ppm,680000 g⁻¹
same,Oocyst index,[3]; feed 10 ppm,31.4
same,Survival rate after challenge inoculation (%),[3]; feed 10 ppm,100%
same,Lesion index,[3]; feed 10 ppm,51
same,ACI,[3]; feed 10 ppm,109
same,Lesion score,[3]; feed 10 ppm,5.1
same,RWG(%),[3]; feed 10 ppm,91.1%
same,ADG(g/d) after challenge inoculation,[3]; feed 15 ppm,45.2 g/day
same,Oocyst excretion amount/g,[3]; feed 15 ppm,380000 g⁻¹
same,Oocyst index,[3]; feed 15 ppm,15.7
same,Survival rate after challenge inoculation (%),[3]; feed 15 ppm,100%
same,Lesion index,[3]; feed 15 ppm,31
same,ACI,[3]; feed 15 ppm,155
same,Lesion score,[3]; feed 15 ppm,3.1
same,RWG(%),[3]; feed 15 ppm,102.0%
same,ADG(g/d) after challenge inoculation,[3]; feed 20 ppm,42.1 g/day
same,Oocyst excretion amount/g,[3]; feed 20 ppm,1.56e+06 g⁻¹
same,Oocyst index,[3]; feed 20 ppm,22.9
same,Survival rate after challenge inoculation (%),[3]; feed 20 ppm,100%
same,Lesion index,[3]; feed 20 ppm,40
same,ACI,[3]; feed 20 ppm,132
same,Lesion score,[3]; feed 20 ppm,4.0
same,RWG(%),[3]; feed 20 ppm,95%
